In brackets after ≈: the same amount, converted by molar mass. Read-outs that look alike come from different tables or passages of the source.
Legend:
Type in all cases: cell-based
Escherichia coli NIHJ = test: antimicrobial activities in in vitro testing (MIC), Escherichia coli NIHJ
[1] = system: Pseudomonas aeruginosa 104; test: antimicrobial activities in in vitro testing (MIC), Pseudomonas aeruginosa 104
From the text: (§1) The results of the antimicrobial activities of these compounds in in vitro testing in accordance with the recognized method are set forth in the Table below.

[2] = system: Staphylococcus aureus FS 289; test: antimicrobial activities in in vitro testing (MIC), Staphylococcus aureus FS 289; conditions: FS289, read-out: Minimum Inhibitory Concentration
From the text: as §1

[3] = system: Staphylococcus aureus 209P; test: antimicrobial activities in in vitro testing (MIC), Staphylococcus aureus 209P
From the text: as §1

Proteus vulgaris HX 19 = test: antimicrobial activities in in vitro testing (MIC), Proteus vulgaris HX 19; conditions: HX19, read-out: Minimum Inhibitory Concentration
From the text: as §1

[4] = system: Klebsiella pneumoniae 602; test: antimicrobial activities in in vitro testing (MIC), Klebsiella pneumoniae 602
[5] = in vitro, read-out: Minimum Inhibitory Concentration
[6] = Staphylococcus aureus 209P, in vitro, read-out: Minimum Inhibitory Concentration
[7] = read-out: antimicrobial activities
[8] = Staphylococcus aureus 209 P, read-out: antimicrobial activities

Row | MIC (Escherichia coli NIHJ; [5]) [µg/mL] | MIC [1, 5] [µg/mL] | MIC [2] [µg/mL] | MIC [3, 6] [µg/mL] | MIC (Proteus vulgaris HX 19) [µg/mL] | MIC [4, 5] [µg/mL] | MIC (Escherichia coli NIHJ; [7]) [µg/mL] | MIC [1, 7] [µg/mL] | MIC [3, 8] [µg/mL] | MIC [4, 7] [µg/mL] | Structure (SMILES)
1 | 6.25 (≈ 9.74 µM) | 6.25 (≈ 9.74 µM) | 3.13 (≈ 4.88 µM) | 0.78 (≈ 1.22 µM) | 1.56 (≈ 2.43 µM) | 6.25 (≈ 9.74 µM) |  |  |  |  | CSc1ncc2c(O)c(C(=O)N[C@@H](C(=O)NC3C(=O)N4C(C(=O)O)=C(COC(N)=O)CS[C@H]34)c3ccc(O)cc3)cnc2n1 (stereo partly drawn) [Example 10, 7-[D-α-(2-Methylthio-5,8-dihydro-5-oxopyrido[2,3-d]-pyrimidine-6-carboxamido)-α-(p-hydroxyphenyl)acetamido]-3-carbamoyloxymethyl-3-cephem-4-carboxylic acid]
2 | 6.25 (≈ 10.5 µM) | 12.5 (≈ 21 µM) | 6.25 (≈ 10.5 µM) | 1.56 (≈ 2.62 µM) | 1.56 (≈ 2.62 µM) | 6.25 (≈ 10.5 µM) |  |  |  |  | NC(=O)OCC1=C(C(=O)O)N2C(=O)C(NC(=O)[C@H](NC(=O)c3cnc4cncnc4c3O)c3ccc(O)cc3)C2SC1 (stereo partly drawn) [Example 11, 7-[D-α-(5,8-Dihydro-5H-8-oxopyrido[3,2-d]pyrimidine-7-carboxamido)-α-(p-hydroxyphenyl)acetamido]-3-carbamoyloxymethyl-3-cephem-4-carboxylic acid]
3 |  |  |  |  |  |  | 1.56 (≈ 2.2 µM) | 3.13 (≈ 4.41 µM) | 0.78 (≈ 1.1 µM) | 1.56 (≈ 2.2 µM) | O=C(O)Cc1nnc(SCC2=C(C(=O)O)N3C(=O)C(NC(=O)[C@H](NC(=O)c4cnc5cccnc5c4O)c4ccc(O)cc4)[C@H]3SC2)s1 (stereo partly drawn) [Example 13, 7-[D-α-(4-Hydroxy-1,5-naphthyridine-3-carboxamido)-α-p-hydroxyphenylacetamido]-3-(5-carboxymethyl-1,3,4-thiadiazol-2-ylthiomethyl)-3-cephem-4-carboxylic Acid]
4 |  |  |  |  |  |  | 1.56 (≈ 2.25 µM) | 3.13 (≈ 4.51 µM) | 0.78 (≈ 1.12 µM) | 1.56 (≈ 2.25 µM) | O=C(O)Cn1nnnc1SCC1=C(C(=O)O)N2C(=O)C(NC(=O)[C@H](NC(=O)c3cnc4cccnc4c3O)c3ccc(O)cc3)[C@H]2SC1 (stereo partly drawn) [Example 14, 7-[D-α-(4-Hydroxy-1,5-naphthyridine-3-carboxamido)-α-p-hydroxyphenylacetamido]-3-(1-carboxymethyl-1,2,3,4-tetrazol-5-ylthiomethyl)-3-cephem-4-carboxylic Acid]

Further lines, the molecule ahead of its results:

Row | Structure (SMILES) | MIC (Escherichia coli NIHJ; [5]) [µg/mL] | MIC [1, 5] [µg/mL] | MIC [2] [µg/mL] | MIC [3, 6] [µg/mL] | MIC (Proteus vulgaris HX 19) [µg/mL] | MIC [4, 5] [µg/mL] | MIC (Escherichia coli NIHJ; [7]) [µg/mL] | MIC [1, 7] [µg/mL] | MIC [3, 8] [µg/mL] | MIC [4, 7] [µg/mL]
5 | NC(=O)OCC1=C(C(=O)O)N2C(=O)C(NC(=O)[C@H](NC(=O)c3cnccc3O)c3ccc(O)cc3)[C@H]2SC1 (stereo partly drawn) [Example 4, 7-[D-α-(4-Hydroxypyridine-3-carboxamido)-α-p-hydroxyphenylacetamido]-3-carbamoyloxymethyl-3-cephem-4-carboxylic Acid] | 12.5 (≈ 23 µM) | 6.25 (≈ 11.5 µM) | 3.13 (≈ 5.76 µM) | 0.39 (≈ 0.718 µM) | 0.2 (≈ 0.368 µM) | 12.5 (≈ 23 µM) |  |  |  | 
6 | NC(=O)OCC1=C(C(=O)O)N2C(=O)C(NC(=O)[C@H](NC(=O)c3cnccc3O)c3cccc(N)c3)[C@H]2SC1 (stereo partly drawn) [Example 5, 7-[D-α-(4-Hydroxypyridine-3-carboxamido)-α-(m-aminophenyl)acetamido]-3-carbamoyloxymethyl-3-cephem-4-carboxylic acid] | 6.25 (≈ 11.5 µM) | 6.25 (≈ 11.5 µM) | 3.13 (≈ 5.77 µM) | 0.39 (≈ 0.719 µM) | 0.2 (≈ 0.369 µM) | 12.5 (≈ 23 µM) |  |  |  | 
7 | NC(=O)OCC1=C(C(=O)O)N2C(=O)C(NC(=O)[C@H](NC(=O)c3cnccc3O)c3ccccc3)[C@H]2SC1 (stereo partly drawn) [Example 6, 7-[D-α-(4-Hydroxypyridine-3-carboxamido)-α-phenylacetamido]-3-carbamoyloxymethyl-3-cephem-4-carboxylic acid] | 12.5 (≈ 23.7 µM) | 12.5 (≈ 23.7 µM) | 3.13 (≈ 5.93 µM) | 0.39 (≈ 0.739 µM) | 0.2 (≈ 0.379 µM) | 12.5 (≈ 23.7 µM) |  |  |  | 
8 | NC(=O)OCC1=C(C(=O)O)N2C(=O)C(NC(=O)[C@H](NC(=O)c3cnc4cccnc4c3O)c3ccc(O)cc3)[C@H]2SC1 (stereo partly drawn) [Example 7, 7-[D-α-(4-Hydroxy-1,5-naphthyridine-3-carboxamido)-α-(p-hydroxyphenyl)acetamido]-3-carbamoyloxymethyl-3-cephem-4-carboxylic acid] | 3.13 (≈ 5.26 µM) | 6.25 (≈ 10.5 µM) | 6.25 (≈ 10.5 µM) | 0.78 (≈ 1.31 µM) | 0.78 (≈ 1.31 µM) | 1.56 (≈ 2.62 µM) |  |  |  | 
9 | NC(=O)OCC1=C(C(=O)O)N2C(=O)C(NC(=O)[C@H](NC(=O)c3cnc4cccnc4c3O)c3ccccc3)[C@H]2SC1 (stereo partly drawn) [Example 8, 7-[D-α-(4-Hydroxy-1,5-naphthyridine-3-carboxamido)-α-phenylacetamido]-3-carbamoyloxymethyl-3-cephem-4-carboxylic acid] | 3.13 (≈ 5.41 µM) | 6.25 (≈ 10.8 µM) | 6.25 (≈ 10.8 µM) | 0.78 (≈ 1.35 µM) | 0.78 (≈ 1.35 µM) | 1.56 (≈ 2.7 µM) |  |  |  | 
10 | NC(=O)OCC1=C(C(=O)O)N2C(=O)C(NC(=O)[C@H](NC(=O)c3cnc4cccnc4c3O)c3cccc(N)c3)C2SC1 (some centres unmarked) [Example 9] | 1.56 (≈ 2.63 µM) | 6.25 (≈ 10.5 µM) | 3.13 (≈ 5.27 µM) | 0.78 (≈ 1.31 µM) | 0.78 (≈ 1.31 µM) | 1.56 (≈ 2.63 µM) |  |  |  | 
11 | NC(=O)OCC1=C(C(=O)O)N2C(=O)C(NC(=O)[C@H](NC(=O)c3cnc4cccnc4c3O)c3ccc(O)c(Cl)c3)C2SC1 (some centres unmarked) [Example 12] | 3.13 (≈ 4.98 µM) | 6.25 (≈ 9.94 µM) | 6.25 (≈ 9.94 µM) | 1.56 (≈ 2.48 µM) | 0.78 (≈ 1.24 µM) | 1.56 (≈ 2.48 µM) |  |  |  | 

From patent US4368198A, “Cephalosporins” (Sumitomo Chemical Company Limited, priority 1976, dated 1983)
